The values that follow come from ChEMBL document CHEMBL1154521, “2,3-Dihydrowithaferin A-3beta-O-sulfate, a new potential prodrug of withaferin A from aeroponically grown Withania somnifera” (2009).

In experiment [1] the test system is WI-38. Briefly: Induction of F-actin aggregation in human WI38 cells after 24 hrs. It counts as functional, cell-based.
Experiment [2] addresses T1, Heat shock factor protein 1 (Mus musculus) (UniProt P38532).
T1 sequence (whole entry): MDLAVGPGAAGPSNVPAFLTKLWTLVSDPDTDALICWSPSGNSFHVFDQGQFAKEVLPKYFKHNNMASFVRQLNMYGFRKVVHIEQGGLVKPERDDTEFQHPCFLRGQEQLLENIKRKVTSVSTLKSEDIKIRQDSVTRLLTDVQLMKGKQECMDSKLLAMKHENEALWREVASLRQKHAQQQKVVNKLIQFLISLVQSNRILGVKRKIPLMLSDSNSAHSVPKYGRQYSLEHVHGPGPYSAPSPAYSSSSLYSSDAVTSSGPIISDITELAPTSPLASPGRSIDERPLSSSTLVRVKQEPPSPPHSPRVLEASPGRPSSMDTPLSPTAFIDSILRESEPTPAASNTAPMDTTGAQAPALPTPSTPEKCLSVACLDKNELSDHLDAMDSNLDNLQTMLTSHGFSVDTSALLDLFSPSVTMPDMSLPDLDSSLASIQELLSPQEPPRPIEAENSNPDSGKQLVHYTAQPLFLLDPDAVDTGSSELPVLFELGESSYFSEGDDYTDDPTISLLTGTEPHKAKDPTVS
As to the kind of experiment: Induction of HSF1-mediated heat-shock protein 72 expression in mouse fibroblast with plasmid EGFP at 2 uM after overnight incubation by micro plate fluorometer.

Experiment [3] concerns MCF7. Briefly: Cytotoxicity against human MCF7 cells after 72 hrs by MTT assay. It counts as functional, cell-based.
Experiment [4] deals with WI-38. Briefly: Induction of F-actin aggregation in human WI38 cells after 4 hrs. It counts as functional, cell-based.
For experiment [5], the system named is MCF7. Briefly: Cytotoxicity against human MCF7 cells by MTT assay. It is filed as functional. Background: Formazan colour is commonly taken as a measure of viable cells.
Experiment [6] can be described thus: Growth inhibition of human NCI60 cells. It counts as functional.

Calls of active or inactive are those of the source. The calls are words filed in the database; no cut-off is given here.

As for `CC1=C(CO)C(=O)O[C@@H]([C@@H](C)[C@H]2CC[C@H]3[C@@H]4C[C@H]5O[C@]56[C@@H](O)[C@@H](OS(=O)(=O)O)CC(=O)[C@]6(C)[C@H]4CC[C@]23C)C1`, the outcome with WI-38 [1] was inactive.
As to `CC1=C(CO)C(=O)O[C@@H]([C@@H](C)[C@H]2CC[C@H]3[C@@H]4C[C@H]5O[C@]56[C@@H](O)C=CC(=O)[C@]6(C)[C@H]4CC[C@]23C)C1` [WITHAFERIN A], the outcome (in experiment [2]; with MCF7 [3]; in the experiment on WI-38 [4]) was Active. Moreover, the “inhibition (INH)” value in the experiment with MCF7 [5] is 50%. Besides, the concentration for 50% growth inhibition (GI50) (as a rule, the concentration that inhibits growth by half) in experiment [6] is 620 nM.
